The values that follow come from ChEMBL document CHEMBL5523749, “Amphiphilic Heparinoids as Potent Antiviral Agents against SARS-CoV-2” (J Med Chem, 2024).

For experiment [1], the system named is SARS-CoV-2. It is filed as functional, organism-based, Severe acute respiratory syndrome coronavirus 2, G614, Vero E6.
A further experiment has as its target Spike glycoprotein (Severe acute respiratory syndrome coronavirus 2, UniProt P0DTC2). Put plainly: Binding affinity to RBD domain of SARS-CoV-2 spike protein assessed as dissociation constant by Isothermal Titration Calorimetry. On the technique in general: ITC needs no label: the signal is the heat of the interaction.
For experiment [2], the system named is SARS-CoV-2. The experiment is described as follows: microbe, parasite or virus in culture. The settings on record: Severe acute respiratory syndrome coronavirus 2, D614, Vero C1008.
Description: (§1) Antiviral activity against SARS-CoV-2 D614 isolates infected in African green monkey Vero E6 cells assessed as reduction in plaque formation treated for 1 hr prior to infection with cells incubated for 30 mins by plaque reduction neutralization test
Experiment [3] concerns SARS-CoV-2. The settings on record: vero e6.
Description: as §1
Where [4] appears, read: Severe acute respiratory syndrome coronavirus 2, G614, Vero C1008, read-out: IC50.

In brackets after ≈: the same amount, converted by molar mass.

For orientation: IC50 means the midpoint of a concentration-inhibition curve. For orientation: Kd means the equilibrium constant for the complex coming apart.

`CC(C)CCC[C@@H](C)[C@H]1CC[C@H]2[C@@H]3CC[C@H]4C[C@@H](O[C@H]5O[C@H](COS(=O)(=O)[O-])[C@@H](O[C@H]6O[C@H](COS(=O)(=O)[O-])[C@@H](O[C@H]7O[C@H](COS(=O)(=O)[O-])[C@@H](O[C@H]8O[C@H](COS(=O)(=O)[O-])[C@@H](O[C@H]9O[C@H](COS(=O)(=O)[O-])[C@@H](O[C@H]%10O[C@H](COS(=O)(=O)[O-])[C@@H](OS(=O)(=O)[O-])[C@H](OS(=O)(=O)[O-])[C@H]%10OS(=O)(=O)[O-])[C@H](OS(=O)(=O)[O-])[C@H]9OS(=O)(=O)[O-])[C@H](OS(=O)(=O)[O-])[C@H]8OS(=O)(=O)[O-])[C@H](OS(=O)(=O)[O-])[C@H]7OS(=O)(=O)[O-])[C@H](OS(=O)(=O)[O-])[C@H]6OS(=O)(=O)[O-])[C@H](OS(=O)(=O)[O-])[C@H]5OS(=O)(=O)[O-])CC[C@]4(C)[C@H]3CC[C@]12C.[Na+].[Na+].[Na+].[Na+].[Na+].[Na+].[Na+].[Na+].[Na+].[Na+].[Na+].[Na+].[Na+].[Na+].[Na+].[Na+].[Na+].[Na+].[Na+]`: the IC50 with SARS-CoV-2 [1] (setting [4]) came to 21.7 µg/mL; in the experiment with SARS-CoV-2 [2] it was 12.2 µg/mL. Moreover, the Kd on Spike glycoprotein worked out at 1870 nM.

With `O=C(CCCCCCCCCCn1cc(CNc2ccc([N+](=O)[O-])c3nonc23)nn1)NCCCCCCO[C@@H]1O[C@H](COS(=O)(=O)[O-])[C@@H](O[C@H]2O[C@H](COS(=O)(=O)[O-])[C@@H](O[C@H]3O[C@H](COS(=O)(=O)[O-])[C@@H](O[C@H]4O[C@H](COS(=O)(=O)[O-])[C@@H](OS(=O)(=O)[O-])[C@H](OS(=O)(=O)[O-])[C@H]4OS(=O)(=O)[O-])[C@H](OS(=O)(=O)[O-])[C@H]3OS(=O)(=O)[O-])[C@H](OS(=O)(=O)[O-])[C@H]2OS(=O)(=O)[O-])[C@H](OS(=O)(=O)[O-])[C@H]1OS(=O)(=O)[O-].[Na+].[Na+].[Na+].[Na+].[Na+].[Na+].[Na+].[Na+].[Na+].[Na+].[Na+].[Na+].[Na+]`, the IC50 in the experiment on SARS-CoV-2 [1] (setting [4]) was 16.1 µg/mL; with SARS-CoV-2 [3], “Not Active”.

As to `CC(C)CCC[C@@H](C)[C@H]1CC[C@H]2[C@@H]3CC[C@H]4C[C@@H](OCc5cn(CCCO[C@@H]6O[C@H](COS(=O)(=O)[O-])[C@@H](O[C@H]7O[C@H](COS(=O)(=O)[O-])[C@@H](O[C@H]8O[C@H](COS(=O)(=O)[O-])[C@@H](O[C@H]9O[C@H](COS(=O)(=O)[O-])[C@@H](OS(=O)(=O)[O-])[C@H](OS(=O)(=O)[O-])[C@H]9OS(=O)(=O)[O-])[C@H](OS(=O)(=O)[O-])[C@H]8OS(=O)(=O)[O-])[C@H](OS(=O)(=O)[O-])[C@H]7OS(=O)(=O)[O-])[C@H](OS(=O)(=O)[O-])[C@H]6OS(=O)(=O)[O-])nn5)CC[C@]4(C)[C@H]3CC[C@]12C.[Na+].[Na+].[Na+].[Na+].[Na+].[Na+].[Na+].[Na+].[Na+].[Na+].[Na+].[Na+].[Na+]`, the IC50 in the experiment on SARS-CoV-2 [1] (setting [4]) was found to be 310 µg/mL; in the experiment with SARS-CoV-2 [2], 115 µg/mL.

In the case of `CCCCCCCCCCCCCCCCCC(=O)NCCCO[C@@H]1O[C@H](COS(=O)(=O)[O-])[C@@H](O[C@H]2O[C@H](COS(=O)(=O)[O-])[C@@H](O[C@H]3O[C@H](COS(=O)(=O)[O-])[C@@H](O[C@H]4O[C@H](COS(=O)(=O)[O-])[C@@H](O[C@H]5O[C@H](COS(=O)(=O)[O-])[C@@H](O[C@H]6O[C@H](COS(=O)(=O)[O-])C(OS(=O)(=O)[O-])[C@H](OS(=O)(=O)[O-])[C@H]6OS(=O)(=O)[O-])[C@H](OS(=O)(=O)[O-])[C@H]5OS(=O)(=O)[O-])[C@H](OS(=O)(=O)[O-])[C@H]4OS(=O)(=O)[O-])[C@H](OS(=O)(=O)[O-])[C@H]3OS(=O)(=O)[O-])[C@H](OS(=O)(=O)[O-])[C@H]2OS(=O)(=O)[O-])[C@H](OS(=O)(=O)[O-])[C@H]1OS(=O)(=O)[O-].[Na+].[Na+].[Na+].[Na+].[Na+].[Na+].[Na+].[Na+].[Na+].[Na+].[Na+].[Na+].[Na+].[Na+].[Na+].[Na+].[Na+].[Na+].[Na+]` (stereo partly drawn), the IC50 entry in the experiment with SARS-CoV-2 [1] (vero e6) and in the experiment on SARS-CoV-2 [3] was “Not Active” throughout.

Regarding `O=C(CCCCCCCCCCn1cc(CNc2ccc([N+](=O)[O-])c3nonc23)nn1)NCCCCCCCCCCCO[C@@H]1O[C@H](COS(=O)(=O)[O-])[C@@H](O[C@H]2O[C@H](COS(=O)(=O)[O-])[C@@H](O[C@H]3O[C@H](COS(=O)(=O)[O-])[C@@H](O[C@H]4O[C@H](COS(=O)(=O)[O-])[C@@H](OS(=O)(=O)[O-])[C@H](OS(=O)(=O)[O-])[C@H]4OS(=O)(=O)[O-])[C@H](OS(=O)(=O)[O-])[C@H]3OS(=O)(=O)[O-])[C@H](OS(=O)(=O)[O-])[C@H]2OS(=O)(=O)[O-])[C@H](OS(=O)(=O)[O-])[C@H]1OS(=O)(=O)[O-].[Na+].[Na+].[Na+].[Na+].[Na+].[Na+].[Na+].[Na+].[Na+].[Na+].[Na+].[Na+].[Na+]`, the IC50 result in the experiment with SARS-CoV-2 [1] (vero e6) is “Not Active”; in the experiment on SARS-CoV-2 [2], 166 µg/mL.

For the compound `C[C@H](CCC[C@@H](C)[C@H]1CC[C@@H]2C1CC[C@H]1[C@H]2CC[C@H]2C[C@@H](O[C@@H]3O[C@H](COS(=O)(=O)[O-])[C@@H](O[C@H]4O[C@H](COS(=O)(=O)[O-])[C@@H](O[C@H]5O[C@H](COS(=O)(=O)[O-])[C@@H](O[C@H]6O[C@H](COS(=O)(=O)[O-])[C@@H](OS(=O)(=O)[O-])[C@H](OS(=O)(=O)[O-])[C@H]6OS(=O)(=O)[O-])[C@H](OS(=O)(=O)[O-])[C@H]5OS(=O)(=O)[O-])[C@H](OS(=O)(=O)[O-])[C@H]4OS(=O)(=O)[O-])[C@H](OS(=O)(=O)[O-])[C@H]3OS(=O)(=O)[O-])CC[C@@]21C)CN=[N+]=[N-].[Na+].[Na+].[Na+].[Na+].[Na+].[Na+].[Na+].[Na+].[Na+].[Na+].[Na+].[Na+].[Na+]` (stereo partly drawn), the IC50 in the experiment on SARS-CoV-2 [1] (setting [4]) stood at 109 µg/mL; in the experiment with SARS-CoV-2 [2], 16.7 µg/mL.

Turning to `CC(C)CCC[C@@H](C)[C@H]1CC[C@H]2[C@@H]3CC[C@H]4C[C@@H](O[C@@H]5O[C@@H](C(=O)O)[C@@H](O[C@@H]6O[C@@H](C(=O)O)[C@@H](O[C@@H]7O[C@@H](C(=O)O)[C@@H](OS(=O)(=O)O)[C@H](O)[C@H]7OS(=O)(=O)O)[C@H](O)[C@H]6OS(=O)(=O)O)[C@H](O)[C@H]5OS(=O)(=O)O)CC[C@]4(C)[C@H]3CC[C@]12C`, the Kd on Spike glycoprotein came out at 9180 nM. Also, the IC50 in the experiment with SARS-CoV-2 [2] came out at 30.4 µg/mL (≈ 24.6 µM).

`C#CCNC(=O)CC[C@@H](C)[C@H]1CC[C@H]2[C@@H]3CC[C@@H]4C[C@H](O[C@@H]5O[C@H](COS(=O)(=O)[O-])[C@@H](O[C@H]6O[C@H](COS(=O)(=O)[O-])[C@@H](O[C@H]7O[C@H](COS(=O)(=O)[O-])[C@@H](O[C@H]8O[C@H](COS(=O)(=O)[O-])[C@@H](OS(=O)(=O)[O-])[C@H](OS(=O)(=O)[O-])[C@H]8OS(=O)(=O)[O-])[C@H](OS(=O)(=O)[O-])[C@H]7OS(=O)(=O)[O-])[C@H](OS(=O)(=O)[O-])[C@H]6OS(=O)(=O)[O-])[C@H](OS(=O)(=O)[O-])[C@H]5OS(=O)(=O)[O-])CC[C@]4(C)[C@H]3CC[C@]12C.[Na+].[Na+].[Na+].[Na+].[Na+].[Na+].[Na+].[Na+].[Na+].[Na+].[Na+].[Na+].[Na+]`: the values for the IC50 entry in the experiment on SARS-CoV-2 [1] (vero e6) and with SARS-CoV-2 [2] were “Not Active” and 85.3 µg/mL, respectively.

With `CC(C)CCC[C@@H](C)[C@H]1CC[C@H]2[C@@H]3CC[C@H]4C[C@@H](O[C@@H]5O[C@@H](COS(=O)(=O)O)[C@@H](O[C@@H]6O[C@@H](COS(=O)(=O)O)[C@@H](O[C@@H]7O[C@@H](COS(=O)(=O)O)[C@@H](OS(=O)(=O)O)[C@H](O)[C@H]7OS(=O)(=O)O)[C@H](O)[C@H]6OS(=O)(=O)O)[C@H](O)[C@H]5OS(=O)(=O)O)CC[C@]4(C)[C@H]3CC[C@]12C`, the Kd at Spike glycoprotein was 2110 nM. In the experiment with SARS-CoV-2 [2], this compound had an IC50 of 26.9 µg/mL (≈ 18.7 µM).

For the compound `CC(C)CCC[C@@H](C)[C@H]1CC[C@H]2[C@@H]3CC[C@H]4C[C@@H](O[C@H]5O[C@H](COS(=O)(=O)[O-])[C@@H](O[C@H]6O[C@H](COS(=O)(=O)[O-])[C@@H](O[C@H]7O[C@H](COS(=O)(=O)[O-])[C@@H](O[C@H]8O[C@H](COS(=O)(=O)[O-])[C@@H](OS(=O)(=O)[O-])[C@H](OS(=O)(=O)[O-])[C@H]8OS(=O)(=O)[O-])[C@H](OS(=O)(=O)[O-])[C@H]7OS(=O)(=O)[O-])[C@H](OS(=O)(=O)[O-])[C@H]6OS(=O)(=O)[O-])[C@H](OS(=O)(=O)[O-])[C@H]5OS(=O)(=O)[O-])CC[C@]4(C)[C@H]3CC[C@]12C.[Na+].[Na+].[Na+].[Na+].[Na+].[Na+].[Na+].[Na+].[Na+].[Na+].[Na+].[Na+].[Na+]`, the values for the IC50 entry in the experiment on SARS-CoV-2 [1] (vero e6) and in the experiment on SARS-CoV-2 [2] were “Not Active” and 148 µg/mL, respectively.

`[N-]=[N+]=NCCCCCCCCCCC(=O)NCCCCCCO[C@@H]1O[C@H](COS(=O)(=O)[O-])[C@@H](O[C@H]2O[C@H](COS(=O)(=O)[O-])[C@@H](O[C@H]3O[C@H](COS(=O)(=O)[O-])[C@@H](O[C@H]4O[C@H](COS(=O)(=O)[O-])[C@@H](OS(=O)(=O)[O-])[C@H](OS(=O)(=O)[O-])[C@H]4OS(=O)(=O)[O-])[C@H](OS(=O)(=O)[O-])[C@H]3OS(=O)(=O)[O-])[C@H](OS(=O)(=O)[O-])[C@H]2OS(=O)(=O)[O-])[C@H](OS(=O)(=O)[O-])[C@H]1OS(=O)(=O)[O-].[Na+].[Na+].[Na+].[Na+].[Na+].[Na+].[Na+].[Na+].[Na+].[Na+].[Na+].[Na+].[Na+]`: the IC50 in the experiment on SARS-CoV-2 [1] (setting [4]) was 158 µg/mL; in the experiment on SARS-CoV-2 [2] it was 101 µg/mL.
